Six compounds from ChEMBL document CHEMBL4831553, “Heterocyclic Compounds as Dihydroorotate Dehydrogenase Inhibitors for Treating Acute Myelogenous Leukemia (AML)” (ACS Med Chem Lett, 2021) can be followed below.

Experiment [1] concerns the target Dihydroorotate dehydrogenase (quinone), mitochondrial (Homo sapiens, UniProt Q02127). As to the kind of experiment: Inhibition of human DHODH using dihydroorotate as substrate and CoQ6 as co-substrate by DCIP dye based spectrophotometry analysis.
The next experiment relates to MOLM-13. As to the kind of experiment: Antiproliferative activity against human MOLM-13 assessed as reduction in cell viability incubated for 72 hrs by Cell titer-Glo assay. The class given is functional, cell-based. The settings on record: MOLM-13, 72 h.

SMILES strings stand for the structures.

Chain of Dihydroorotate dehydrogenase (quinone), mitochondrial (Q02127 whole entry): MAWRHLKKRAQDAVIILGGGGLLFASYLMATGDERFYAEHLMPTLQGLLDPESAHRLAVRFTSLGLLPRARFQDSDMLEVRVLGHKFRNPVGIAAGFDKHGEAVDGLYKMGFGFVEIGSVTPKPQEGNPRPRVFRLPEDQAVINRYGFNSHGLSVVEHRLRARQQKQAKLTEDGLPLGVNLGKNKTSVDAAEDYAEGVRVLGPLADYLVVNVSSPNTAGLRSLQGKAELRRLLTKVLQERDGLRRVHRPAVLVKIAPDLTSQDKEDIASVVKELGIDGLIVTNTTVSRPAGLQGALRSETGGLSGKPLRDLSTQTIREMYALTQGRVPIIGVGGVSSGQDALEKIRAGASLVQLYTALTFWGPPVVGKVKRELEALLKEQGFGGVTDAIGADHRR

Regarding `CCn1c(CO)nn(-c2nc(OC(C)C(F)(F)F)c3c(Oc4c(F)cccc4Cl)nccc3c2F)c1=O` (configuration not stated), the values for the IC50 (in experiment [1]; with MOLM-13) were 0.59 nM and 0.4 nM, respectively.

Turning to `CCn1c(CO)nn(-c2cc(O[C@@H](C)C(F)(F)F)c3c(Oc4c(F)ccc(OC)c4Cl)nccc3c2)c1=O`, the IC50 (in experiment [1]; with MOLM-13) was 0.3 nM each time.

In the case of `CCn1c(CO)nn(-c2cc(O[C@@H](C)C(F)(F)F)c3c(Oc4c(F)ccc(OCCOC)c4Cl)nccc3c2)c1=O`, the IC50 (usually the concentration at which inhibition is half-maximal) was determined as 0.41 nM in experiment [1] and 0.3 nM in the experiment with MOLM-13.

As for `CCn1c(CO)nn(-c2nc(O[C@@H](C)C(F)(F)F)c3c(Oc4c(F)cccc4Cl)nncc3c2F)c1=O`, the IC50 (in experiment [1]; in the experiment on MOLM-13) was 0.2 nM throughout.

In the case of `CCn1c(CO)nn(-c2nc(O[C@@H](C)C(F)(F)F)c3c(Nc4c(F)cccc4Cl)nncc3c2F)c1=O`, the IC50 in experiment [1] is 0.38 nM; in the experiment with MOLM-13, 0.46 nM.

As to `CCn1c(CO)nn(-c2cc(O[C@@H](C)C(F)(F)F)c3c(Oc4c(F)ccc(N(C)C)c4Cl)nccc3c2)c1=O`, the values for the IC50 (in experiment [1]; in the experiment on MOLM-13) were 0.4 nM and 0.3 nM, respectively.
